Settings: Liquid; for speed of sound: Pulse-echo method; for mass density: Vibrating tube method

CCCCCCCCCCCCCCCC(=O)OC [methyl hexadecanoate]
Settings	mass density [kg/m3]	speed of sound [m/s]
313.15 K, 100 kPa	–	1317.2
313.15 K, 101.3 kPa	849.9	–
313.15 K, 10000 kPa	856.3	1365.4
313.15 K, 20000 kPa	861.8	1411.5
313.15 K, 30000 kPa	867.9	1454.4
313.15 K, 40000 kPa	872.1	1494.8
313.15 K, 50000 kPa	878.4	–
323.15 K, 100 kPa	–	1283.4
323.15 K, 101.3 kPa	842.5	–
323.15 K, 10000 kPa	849	1333.7
323.15 K, 20000 kPa	855.5	1381.1
323.15 K, 30000 kPa	861.4	1425.2
323.15 K, 40000 kPa	866.8	1467.4
323.15 K, 50000 kPa	871.8	1506.9
333.15 K, 101.3 kPa	835.2	–
333.15 K, 10000 kPa	842	–
333.15 K, 20000 kPa	848.7	–
333.15 K, 30000 kPa	854.9	–
333.15 K, 40000 kPa	860.4	–
333.15 K, 50000 kPa	866.7	–
343.15 K, 100 kPa	–	1215.3
343.15 K, 101.3 kPa	827.8	–
343.15 K, 10000 kPa	835.1	1270.1
343.15 K, 20000 kPa	842	1319.7
343.15 K, 30000 kPa	848.5	1366.8
343.15 K, 40000 kPa	854.4	1410.5
343.15 K, 50000 kPa	859.6	1450.6
353.15 K, 101.3 kPa	820.4	–
353.15 K, 10000 kPa	827.7	–
353.15 K, 20000 kPa	835.1	–
353.15 K, 30000 kPa	841.7	–
353.15 K, 40000 kPa	847.9	–
353.15 K, 50000 kPa	853.8	–
363.15 K, 100 kPa	–	1150.1
363.15 K, 101.3 kPa	812.8	–
363.15 K, 10000 kPa	820.3	1208.9
363.15 K, 20000 kPa	828	1262.5
363.15 K, 30000 kPa	835	1311.1
363.15 K, 40000 kPa	843.8	1355.7
363.15 K, 50000 kPa	848.6	1400.9
373.15 K, 101.3 kPa	804.6	–
373.15 K, 10000 kPa	813.8	–
373.15 K, 20000 kPa	821.7	–
373.15 K, 30000 kPa	829	–
373.15 K, 40000 kPa	835.7	–
373.15 K, 50000 kPa	841.9	–
383.15 K, 100 kPa	–	1087.2
383.15 K, 101.3 kPa	797.4	–
383.15 K, 10000 kPa	806.8	1150.3
383.15 K, 20000 kPa	815.1	1207.5
383.15 K, 30000 kPa	822.7	1259.3
383.15 K, 40000 kPa	829.6	1310.8
383.15 K, 50000 kPa	836.5	1358.3
393.15 K, 100 kPa	–	1056.9
393.15 K, 10000 kPa	–	1121.2
393.15 K, 20000 kPa	–	1180.4
393.15 K, 30000 kPa	–	1234.2
393.15 K, 40000 kPa	–	1284.7
393.15 K, 50000 kPa	–	1334

CCCCCCCCCCCCCC(=O)OC [methyl tetradecanoate]
Settings	mass density [kg/m3]	speed of sound [m/s]
303.15 K, 100 kPa	–	1335.8
303.15 K, 101.3 kPa	859.7	–
303.15 K, 10000 kPa	866.3	1382.9
303.15 K, 20000 kPa	872.4	1426.9
303.15 K, 30000 kPa	878.2	1468.1
303.15 K, 40000 kPa	883.7	1507.6
303.15 K, 50000 kPa	888.9	1544.9
303.15 K, 60000 kPa	893.8	1580.2
303.15 K, 70000 kPa	898.5	1614.2
313.15 K, 101.3 kPa	851.6	–
313.15 K, 10000 kPa	858.2	–
313.15 K, 20000 kPa	864.7	–
313.15 K, 30000 kPa	870.7	–
313.15 K, 40000 kPa	876.4	–
313.15 K, 50000 kPa	881.7	–
313.15 K, 60000 kPa	886.8	–
313.15 K, 70000 kPa	891.7	–
313.15 K, 80000 kPa	896.3	–
323.15 K, 100 kPa	–	1264
323.15 K, 101.3 kPa	843.3	–
323.15 K, 10000 kPa	850.5	1316.4
323.15 K, 20000 kPa	857.2	1364.8
323.15 K, 30000 kPa	863.5	1409.6
323.15 K, 40000 kPa	869.4	1451.9
323.15 K, 50000 kPa	874.9	1492.5
323.15 K, 60000 kPa	880.2	1530.5
323.15 K, 70000 kPa	885.2	1566.8
323.15 K, 80000 kPa	889.9	1601.2
333.15 K, 101.3 kPa	835.2	–
333.15 K, 10000 kPa	843	–
333.15 K, 20000 kPa	850.1	–
333.15 K, 30000 kPa	856.6	–
333.15 K, 40000 kPa	862.7	–
333.15 K, 50000 kPa	868.4	–
333.15 K, 60000 kPa	873.8	–
333.15 K, 70000 kPa	879	–
333.15 K, 80000 kPa	883.9	–
343.15 K, 100 kPa	–	1195.7
343.15 K, 101.3 kPa	827.9	–
343.15 K, 10000 kPa	835.7	1251.2
343.15 K, 20000 kPa	843.1	1302.9
343.15 K, 30000 kPa	849.8	1350.8
343.15 K, 40000 kPa	856.2	1396
343.15 K, 50000 kPa	862.1	1437.4
343.15 K, 60000 kPa	867.7	1477.5
343.15 K, 70000 kPa	873	1515
343.15 K, 80000 kPa	878	1550.8
353.15 K, 101.3 kPa	820.2	–
353.15 K, 10000 kPa	828.5	–
353.15 K, 20000 kPa	836.1	–
353.15 K, 30000 kPa	843.2	–
353.15 K, 40000 kPa	849.8	–
353.15 K, 50000 kPa	855.9	–
353.15 K, 60000 kPa	861.6	–
353.15 K, 70000 kPa	867.1	–
353.15 K, 80000 kPa	872.3	–
363.15 K, 100 kPa	–	1130.9
363.15 K, 101.3 kPa	812.6	–
363.15 K, 10000 kPa	821.2	1190.4
363.15 K, 20000 kPa	829.2	1245.2
363.15 K, 30000 kPa	836.6	1295.9
363.15 K, 40000 kPa	843.4	1342.5
363.15 K, 50000 kPa	849.7	1385.7
363.15 K, 60000 kPa	855.6	1426.7
363.15 K, 70000 kPa	861.2	1465.5
363.15 K, 80000 kPa	866.6	1502.6
373.15 K, 101.3 kPa	804.6	–
373.15 K, 10000 kPa	813.9	–
373.15 K, 20000 kPa	822.2	–
373.15 K, 30000 kPa	829.9	–
373.15 K, 40000 kPa	836.9	–
373.15 K, 50000 kPa	843.5	–
373.15 K, 60000 kPa	849.6	–
373.15 K, 70000 kPa	855.3	–
373.15 K, 80000 kPa	860.8	–
383.15 K, 100 kPa	–	1066.7
383.15 K, 101.3 kPa	796.4	–
383.15 K, 10000 kPa	806.3	1131.3
383.15 K, 20000 kPa	815.1	1189.6
383.15 K, 30000 kPa	823	1242.9
383.15 K, 40000 kPa	830.3	1291.7
383.15 K, 50000 kPa	837.1	1338
383.15 K, 60000 kPa	843.4	1380.3
383.15 K, 70000 kPa	849.3	1420.4
383.15 K, 80000 kPa	854.9	1457.6
393.15 K, 100 kPa	–	1036.2
393.15 K, 101.3 kPa	788.5	–
393.15 K, 10000 kPa	798.6	1103.6
393.15 K, 20000 kPa	807.7	1163.5
393.15 K, 30000 kPa	815.9	1217.8
393.15 K, 40000 kPa	823.5	1267.7
393.15 K, 50000 kPa	830.5	1314.4
393.15 K, 60000 kPa	837	1357.8
393.15 K, 70000 kPa	843.1	1397.8
393.15 K, 80000 kPa	848.8	1436.8

Reference: the NIST ThermoML archive (doi:10.1021/je400122k)
